How the values were obtained:
[1] = pH changes in liposomes experiencing a Cl- gradient (oligophenoxyacetamides); assay type: biochemical
Description: FIG. 2B illustrates alkanization of the vesicular aqueous compartment upon application of compounds 1-6 to a suspension of NaCl-containing vesicles in isosmomolar Na2SO4 buffer. Concentration of compounds 1-6 in the vesicular suspension was 20 μm (4 mol %). Legend for traces denotes use of oligocompounds 1, 2, 3, 4, 5, 6.
Liposome Preparation for Fluorimetric Assays. Egg yolk L-α-phosphatidylcholine (EYPC ethanol solution, […], 79 μmol) was dissolved in a CHCl3/MeOH mixture, the solution was evaporated under reduced pressure and the resulting thin film was dried under high vacuum for 2 h. The lipid film was hydrated in 1.2 mL of phosphate buffer (10 mM sodium phosphate, pH=6.4, 75-100 mM MnX, M=N^+, K^+, X=Cl^−, SO4^2−, n=1,2) containing 10 μM HPTS (pyranine, 8-hydroxypyrene-1,3,6-trisulfonic acid trisodium salt) for 40 min. During hydration, the suspension was submitted to 5 freeze-thaw cycle (liquid nitrogen, water at rt). The large multilamellar liposome suspension (1 mL) was submitted to high-pressure extrusion at rt (21 extrusions through a 0.1 μm polycarbonate membrane afforded a suspension of LUVs with an average diameter of 100 nm). The LUV suspension was separated from extravesicular dye by size exclusion chromatography (SEC) (stationary phase: Sephadex G-10, mobile phase: phosphate buffer) and diluted with the same phosphate buffer to give a stock solution with a lipid concentration of 11 mM (assuming 100% of lipid was incorporated into liposomes).
Analysis of pH changes in the liposomes experiencing a CT gradient. a) Outwardly directed gradient of Cl:HPTS-loaded vesicles (100 μL of the stock solution), filled with a saline phosphate buffer (10 mM sodium phosphate, pH 6.4, 100 mM NaCl) were suspended in 1.9 mL of an isosmotic phosphate sulfate buffer (10 mM sodium phosphate, pH 6.0, 75 mM Na2SO4) and placed into a fluorimetric cell. The emission of HPTS at 510 nm was monitored with excitation wavelengths at 403 and 460 nm simultaneously. During the experiment, 20 μL of a 0-2 mM DMSO solution of the compound of interest was added through an injection port. Intravesicular pH values were obtained as described for pH-stat transport assays. At the end of experiment, the aqueous compartment of liposomes was equilibrated with extravesicular solution by lysis of liposomes with detergent (40 μL of 5% aqueous Triton X100). b) Inwardly directed gradient of Cl:HPTS-loaded vesicles (100 μL of the stock solution), filled with a isoosimomolar sulfate phosphate buffer (10 mM sodium phosphate, pH 6.0, 75 mM Na2SO4) were suspended in 1.9 mL of an isosmotic phosphate saline buffer (10 mM sodium phosphate, pH 6.4, 100 mM NaCl) and placed into a fluorimetric cell. Further analysis was conducted as described for the case of an outwardly directed gradient of […]. Analysis of the electrostatic potential on the surface of liposomes. LUVs (100 μL of stock solution, 100 mM KCl inside and outside or 75 mM Na2SO4 inside and outside) were suspended in 1.9 mL of 100 mM NaCl buffer containing 60 nM safranin O (a potential-sensitive dye). Safranin O emission was monitored at 580 nm with excitation at 520 nm. During the course of the experiment, 20 μL of a 0-0.12 mM DMSO solution of valinomycin or 0-2 mM of 3-8 DMSO solution was added. Experiments were completed by injection of 20 μL of 1 mM aqueous solution of the defect-inductive peptide melittin.

35Cl NMR transport assay = assay type: biochemical; settings: vesicles with NaCl and Co2+ inside, Co2+-free Na2SO4 buffer outside; 2 mol %
Description: FIG. 2A illustrates ^35Cl NMR spectra of a suspension of giant vesicles (29 mM EYPC, 100 mM NaCl, 10 mM CoCl2, 10 mM NanH3-nPO4, n=1, 2 pH 5.3) suspended in 75 mM […] buffer (NanH3-nPO4, n=1, 2, pH spectra correspond to a) giant vesicles in the absence of 3, b) giant vesicles after application of 2 mol % 3 in DMSO, c) vesicles after lysis with Triton X-100.
Liposome Preparation for ^35Cl NMR Assays. Egg yolk L-α-phosphatidylcholine (1.0 mg/mL EYPC ethanol solution, 250 μL, […]) was dissolved in a CHCl3/MeOH mixture, the solution was evaporated under reduced pressure and the resulting thin film was dried under high vacuum for 2.5 h. The lipid film was hydrated in 1.0 mL of phosphate buffer (9:1 H2O:D2O, 10 mM sodium phosphate, pH=5.4, 100 mM NaCl) containing 10 mM CoCl2 (^35Cl shift reagent) for 40 min. During hydration, the suspension was submitted to 5 freeze-thaw cycles (liquid nitrogen, water at rt). The giant liposome suspension (1 mL) was submitted to high-pressure extrusion at rt (41 passes through a 5.0 μm polycarbonate membrane). […]
^35Cl NMR Measurements. All ^35Cl NMR spectra were recorded on a Bruker DRX500 instrument operating at 49.0023 MHz for the ^35Cl resonance and chemical shift values are reported in ppm relative to 25 mM NaCl in D2O at 0 ppm (external standard). […]

[2] = 4 mol %, NaCl-loaded liposomes in Na2SO4 buffer

## CCCCNC(=O)COc1ccccc1Cc1cccc(Cc2ccccc2OCC(=O)NCCCC)c1OCC(=O)NCCCC [trimer 3, Tris-(N-butyl-2-phenoxyacetamide)]
[1]; [2]
  pH gradient generated: approximately are pH unit
  time to reach the pH gradient: ≤ 1.5 minutes
[1]; 4 mol %, until the liposomes were lysed
  time the pH gradient remained stable: 5 minutes
[1]; NaCl-loaded liposomes in Na2SO4 buffer
  relative ability to alter the pH in liposomes under a Cl− gradient: most active compound in the series tested
[1]; sulfate-loaded liposomes suspended in Cl− buffer
  transport under inwardly directed Cl− gradient: transports both Cl^− and H^+ into sulfate-loaded liposomes
35Cl NMR transport assay
  outward Cl− transport (35Cl NMR signal): enhancement of the extravesicular Cl^− peak

Source: patent publication US7355074B2, “Compounds having aromatic rings and side-chain amide-functionality and a method for transporting monovalent anions across biological membranes using the same” (The University of Maryland, priority 2003, dated 2008)
